Key:
αvβ3 integrin receptor = αvβ3 integrin receptor (Homo sapiens, UniProt P05106+P06756); settings: benchmark αvβ3 integrin antagonists; cited from earlier work
Taq DNA polymerase = Taq DNA polymerase (Thermus aquaticus, UniProt P19821); assay: acceptance of modified nucleotide triphosphates in PCR; assay type: biochemical; settings: 30 PCR cycles, pUC19 template DNA, three natural deoxynucleotide triphosphates, gel electrophoresis (FIG. 51)
Excerpt: The ability of thermostable DNA polymerases suitable for PCR amplification to accept these modified nucleotide triphosphates containing metal-binding functionality. Non-natural nucleotide triphosphates were purified by ion exchange HPLC and added to PCR reactions containing Taq DNA polymerase, three natural deoxynucleotide triphosphates, pUC19 template DNA, and two DNA primers. Primers were chosen to generate PCR products ranging from 50 to 200 base pairs in length. Control PCR reactions contained the four natural deoxynucleotide triphosphates and no non-natural nucleotides. PCR reactions were analyzed by agarose or denaturing acrylamide gel electrophoresis. […] Previous findings on the acceptance of 7 by Taq DNA polymerase are in conflict, with-both non-acceptance (K. Sakthivel et al. Angew. Chem. Int. Ed. Engl. 1998, 37, 2872–2875) and acceptance (S. E. Lee et al. Nucleic Acids Res. 2001, 29, 1565–73) reported.

Taq DNA polymerase, sequence (P19821 whole entry): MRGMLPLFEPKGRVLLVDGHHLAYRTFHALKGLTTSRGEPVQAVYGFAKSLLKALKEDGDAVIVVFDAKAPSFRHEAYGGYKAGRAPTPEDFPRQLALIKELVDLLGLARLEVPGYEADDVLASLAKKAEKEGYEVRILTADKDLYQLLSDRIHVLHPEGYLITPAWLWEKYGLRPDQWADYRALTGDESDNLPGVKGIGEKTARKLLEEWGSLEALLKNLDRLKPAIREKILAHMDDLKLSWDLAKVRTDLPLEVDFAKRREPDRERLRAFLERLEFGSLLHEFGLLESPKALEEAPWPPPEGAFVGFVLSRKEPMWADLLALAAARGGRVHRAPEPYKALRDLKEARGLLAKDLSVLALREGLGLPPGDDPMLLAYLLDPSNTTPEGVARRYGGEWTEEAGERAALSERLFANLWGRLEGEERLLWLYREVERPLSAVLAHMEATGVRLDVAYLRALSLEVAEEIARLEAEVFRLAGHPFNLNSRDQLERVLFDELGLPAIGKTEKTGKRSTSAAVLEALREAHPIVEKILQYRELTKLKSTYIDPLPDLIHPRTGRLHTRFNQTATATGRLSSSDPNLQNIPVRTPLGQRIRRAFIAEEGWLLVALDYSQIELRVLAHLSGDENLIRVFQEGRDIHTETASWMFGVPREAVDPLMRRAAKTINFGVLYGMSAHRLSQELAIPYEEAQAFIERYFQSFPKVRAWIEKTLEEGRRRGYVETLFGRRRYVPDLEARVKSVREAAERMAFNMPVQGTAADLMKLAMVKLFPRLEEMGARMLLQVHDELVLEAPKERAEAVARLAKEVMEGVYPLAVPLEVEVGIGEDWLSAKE
αvβ3 integrin receptor, sequence (P06756 31-889 limits assumed): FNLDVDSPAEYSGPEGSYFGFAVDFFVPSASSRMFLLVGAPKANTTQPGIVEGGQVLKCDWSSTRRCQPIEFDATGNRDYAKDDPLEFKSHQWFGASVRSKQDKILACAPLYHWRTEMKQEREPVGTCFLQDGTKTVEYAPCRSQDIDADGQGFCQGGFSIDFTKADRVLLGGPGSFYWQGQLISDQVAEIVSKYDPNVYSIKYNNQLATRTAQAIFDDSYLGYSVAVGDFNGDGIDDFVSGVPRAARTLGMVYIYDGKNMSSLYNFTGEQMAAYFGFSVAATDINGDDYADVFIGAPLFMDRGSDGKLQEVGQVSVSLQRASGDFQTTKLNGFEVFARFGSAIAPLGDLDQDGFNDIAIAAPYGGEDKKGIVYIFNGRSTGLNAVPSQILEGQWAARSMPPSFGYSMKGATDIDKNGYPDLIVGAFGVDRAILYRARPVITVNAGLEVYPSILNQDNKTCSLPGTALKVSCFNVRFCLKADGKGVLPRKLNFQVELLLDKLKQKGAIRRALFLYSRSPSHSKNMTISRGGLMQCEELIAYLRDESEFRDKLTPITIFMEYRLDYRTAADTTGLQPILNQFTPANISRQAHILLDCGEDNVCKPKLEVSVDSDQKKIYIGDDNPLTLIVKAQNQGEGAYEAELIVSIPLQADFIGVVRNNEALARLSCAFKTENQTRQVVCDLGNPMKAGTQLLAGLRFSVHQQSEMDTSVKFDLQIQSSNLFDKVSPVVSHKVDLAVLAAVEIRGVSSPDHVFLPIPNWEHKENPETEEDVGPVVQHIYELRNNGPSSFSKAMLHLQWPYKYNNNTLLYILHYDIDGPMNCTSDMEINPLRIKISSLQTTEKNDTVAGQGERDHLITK
αvβ3 integrin receptor, sequence (P06756 891-1048 partner limits assumed): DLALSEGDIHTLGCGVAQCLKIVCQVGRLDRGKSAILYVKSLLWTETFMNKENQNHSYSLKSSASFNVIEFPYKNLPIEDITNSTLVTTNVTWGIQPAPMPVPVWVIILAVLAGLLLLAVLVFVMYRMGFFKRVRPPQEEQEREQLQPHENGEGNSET
αvβ3 integrin receptor, sequence (P05106 27-788): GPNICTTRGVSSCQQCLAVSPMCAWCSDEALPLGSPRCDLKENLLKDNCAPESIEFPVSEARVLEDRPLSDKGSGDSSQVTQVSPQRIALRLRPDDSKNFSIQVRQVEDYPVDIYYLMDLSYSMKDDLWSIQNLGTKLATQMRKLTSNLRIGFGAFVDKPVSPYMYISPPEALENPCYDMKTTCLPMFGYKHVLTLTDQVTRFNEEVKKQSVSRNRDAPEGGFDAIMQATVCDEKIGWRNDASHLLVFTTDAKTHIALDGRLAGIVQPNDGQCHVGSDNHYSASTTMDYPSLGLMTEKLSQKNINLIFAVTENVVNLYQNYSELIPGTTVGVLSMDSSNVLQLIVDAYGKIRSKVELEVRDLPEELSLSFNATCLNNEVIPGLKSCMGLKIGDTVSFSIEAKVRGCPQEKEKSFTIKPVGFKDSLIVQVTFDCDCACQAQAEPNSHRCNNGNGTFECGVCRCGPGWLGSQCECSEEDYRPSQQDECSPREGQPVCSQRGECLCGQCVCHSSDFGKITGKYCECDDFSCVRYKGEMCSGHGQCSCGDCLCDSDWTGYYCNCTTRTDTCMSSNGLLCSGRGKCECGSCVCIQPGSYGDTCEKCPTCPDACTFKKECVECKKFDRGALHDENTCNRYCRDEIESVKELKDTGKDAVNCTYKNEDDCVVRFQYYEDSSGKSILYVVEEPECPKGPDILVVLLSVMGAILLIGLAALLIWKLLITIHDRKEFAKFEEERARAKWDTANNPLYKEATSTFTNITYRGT

GRGDSPK [linear peptide, benchmark αvβ3 integrin antagonist]
IC50 (αvβ3 integrin receptor): 210 nM

O=C(NCC=Cc1cn(C2CC(O)C(COP(=O)(O)OP(=O)(O)OP(=O)(O)O)O2)c(=O)[nH]c1=O)C(F)(F)F (centres unmarked) [triphosphate of 23]
incorporation by Taq DNA polymerase (Taq DNA polymerase): not an efficient polymerase substrate
